Measurements published in patent US20260265538A1, “Aqueous Industrial Product Stabilized Against Microbial Contamination” (Thor GmbH, priority 2023, published 2026).
Counter-ions that a name gives are not always drawn.

Tested on: Bacteria mixture 1 (Pseudomonas genus)
Assay: Repetitive stress test of paints with bacteria mixture 1, semiquantitative evaluation (examples 2 and 3)
Assay type: cell-based
Description: Paints 1 to 3 were mixed and homogenized with various concentrations of the guanidinium salts to be tested.
The batches obtained of the paint thus prepared were inoculated repeatedly with a mixture of different wild-type bacterial strains that are of practical relevance with regard to contamination. These bacteria had previously been isolated from commercial emulsion paints containing conventional preservatives (bacteria mixture 1, Pseudomonas genus), which are microbially contaminated in practice, and commercial so-called preservative-free alkaline emulsion paints (bacteria mixture 2, alkaliphilic bacteria of the Nesterenkonia & Alkalibacterium genus), which are microbially contaminated in practice.
• Pseudomonas spp. (Pseudomonas oleovorans group) DSM 33933 • Pseudomonas aeruginosa DSM 33935 • Pseudomonas oleovorans DSM 33936 • Pseudomonas putida DSM 33937 • Pseudomonas aeruginosa DSM 33938
The inoculum was added to the respective sample in each inoculation at 2% (v/w) as a fresh cell suspension in a physiological saline solution (0.9% NaCl). The cell count of the added inoculum in example 1 was 10^5/ml, in examples 2 to 5 10^9/ml, and in example 6 10^6/ml, each in equal portions consisting of the individual bacterial strains. The cell suspension was produced by growing the individual bacteria at 30° C. for 24 h in liquid culture on a shaker. The medium used to grow the bacteria from bacteria mixture 1 was Müller-Hinton liquid medium. Bacteria from bacteria mixture 2 were grown in Müller-Hinton liquid medium that had been adjusted to pH 9.5-9.7 with an alkaline buffer solution beforehand. After growing, the individual liquid cultures were centrifuged, and the cells were resuspended in physiological saline solution. In order to adjust the mixture to the desired cell count, the individual bacteria suspensions, if necessary, were diluted accordingly before being combined with saline solution. The cell count of the inoculum was determined in each case by chamber counting.
In examples 2 to 6, what is called a repetitive stress test with bacteria was conducted by inoculating the samples at particular time intervals repeatedly with a bacteria suspension having a cell count of 10^9/ml (2% v/w) and monitoring the evolution of the bacteria by a semiquantitative evaluation method. After each inoculation, the samples were incubated at 30° C. for 6 days (bacteria mixture 1 and 3) or 7 and 14 days (bacteria mixture 2), and after these periods bacterial infestation was evaluated semiquantitatively in each case. For this purpose, an aliquot was taken from each sample after homogenization using a sterile plastic inoculation loop (10 μl) and streaked evenly on agar plates (bacteria mixture 1 and 3 on tryptic soy agar, bacteria mixture 2 on DSMZ 31 alkaline nutrient agar). The streaked agar plates were then incubated at 30° C. for 48 h (bacteria mixture 1 and 3) or 5 to 7 days (bacteria mixture 2). After incubation, the bacterial colonies grown on the agar plates were visually evaluated and quantified according to the following scheme:
A total of 3 inoculation cycles was performed in each repetitive stress test.
Inoculation 2% (w/v) with Bacteria Mixture 1, 10^9 CFU/ml
2% (w/v) Inoculation with Bacteria Mixture 1, […]

Measured: Stabilization of the paint against microbial infestation

N=C(N)N [guanidine hydrochloride]
distinct stabilization: table 2, addition of 0.25% by weight to paint 1 having a pH of pH 8.5 | table 2, addition of 0.25% by weight to paint 2 having a pH of 9.0 | table 3, paint 1, pH of 7.5, addition of 0.8% by weight | table 3, paint 2, pH of pH 7.6, addition of 0.8% by weight
